Measured values: US20020177526A1, “Insecticidal seed coating” (priority 1996, published 2002)

Experiments:
corn rootworm larvae [1] = assay: Corn rootworm greenhouse bioassay (2 gal pot); format: in vivo; details: Iowa scale 1-6
From the text: (§1) Hybrid corn seeds with and without an insecticidal coating are planted in Nebraska, Iowa, Minnesota, Wisconsin and Illinois to determine the efficacy of various coated seed treatments in standard tests. All seeds contain a Captan pretreatment whether or not a coating is applied. Additionally, an overcoat layer is applied to all coated seed which comprises the coating described in Example 2. Banded granular insecticides are applied at the manufactures label rates using granular insecticide applicators. Plot size for each treatment is two ten foot rows spaced 30 inches apart with four replications of each treatment at each location. Non-diaposing 1st instar Western Corn Rootworm larvae are side dressed on both sides of the corn plants in the row at a rate of 800 eggs per foot of row. Application of the insect larvae is made when the corn seedlings are approximately at the two leaf stage. The placement of the larvae is approximately two inches to the side of the corn plants and two inches below the soil surface. Plots are maintained with normal cultural practices until the corn plants reach the flowering stage. At late brown silk stage, 10 sequential roots from each plot are obtained. The corn stalks are cut at approximately 12 inches above the soil line. Each corn root is washed and after washing the roots are rated on a scale of 1-6 using the Iowa Root Rating Method developed at Iowa State University (Hills and Peters, 1971) and used commonly throughout the corn belt. In the rating, 1=no damage or only a few minor feeding scars; 2=feeding scars evident but no roots eaten off to within 1½ inch of the plant; 3=several roots eaten off to within 1½ inch of the plant but never the equivalent of an entire node of roots is destroyed; 4=one root node completely destroyed; 5=two root nodes completely destroyed and 6=three or more root nodes destroyed. A destroyed root is defined as a root that has been pruned to within 1½ inch of the base. […] In addition, a growth chamber and a greenhouse bioassay was used to determine the effect of insecticidal seed coating on corn rootworm control. For growth chamber assay, corn seed was planted in a 16 oz cup with garden Jiffymix, and allowed to grow for two weeks. Twenty neonate corn rootworm larvae are placed in the Jiffymix near corn roots and allowed to feed for approximately 2 weeks. The larvae are then screened out and the % mortality of the larvae is determined. Each corn root is washed and after washing the roots are rated on a scale of 1-6 using the Iowa Root Rating Method developed at Iowa State University (Hills and Peters, 1971). Some of the results are indicated below in Table 3. The greenhouse assay use 2 gallon pot with 20 mesh corn field soil. Forty corn rootworm larvae are placed in each pot when corn plant was at 4 to 5-leaf stage, and allowed to feed for 2 to 3 weeks. Each corn root is washed and after washing the roots are rated on a scale of 1-6 using the Iowa Root Rating Method developed at Iowa State University (Hills and Peters, 1971). Some of the results are indicated below in Table 3.
(§2) Maize seed is treated as described in Examples 1 and 2. A combination of methyl cellulose and polyvinyl alcohol is used as a binder and Celite 266 is used as filler for insecticide solution, which contains the compound of formula II as the insecticide. Bioassay methods are as described in Example 4. Root rating was based on the Iowa State 1-6 scale.

corn rootworm larvae [2] = assay: Corn rootworm growth chamber bioassay (16 oz cup); format: in vivo; details: Iowa scale 1-6
From the text: as §1, §2

## CN1COCN(Cc2cnc(Cl)s2)/C1=N/[N+](=O)[O-] [Formula II]
Corn rootworm larvae [1]; 0.6 mg/seed
  Greenhouse (2 gal pot) Root Rating: 2.73
Corn rootworm larvae [1]; 1.2 mg/seed
  Greenhouse (2 gal pot) Root Rating: 3.08
Corn rootworm larvae [1]; 1.5 mg/seed
  Greenhouse (2 gal pot) Root Rating: 2.96
Corn rootworm larvae [1]; 2.0 mg/seed
  Greenhouse (2 gal pot) Root Rating: 2.90
Corn rootworm larvae [2]; 0.01 mg/seed (combination: plus Raze 0.13 mg/seed)
  Growth Chamber (16 oz cup) Root Rating: 5.30
Corn rootworm larvae [2]; 0.03 mg/seed
  Growth Chamber (16 oz cup) Root Rating: 4.30
Corn rootworm larvae [2]; 0.3 mg/seed (combination: plus Raze 0.13 mg/seed)
  Growth Chamber (16 oz cup) Root Rating: 2.70
Corn rootworm larvae [2]; 0.6 mg/seed
  Growth Chamber (16 oz cup) Root Rating: 2.10
Corn rootworm larvae [2]; 0.8 mg/seed
  Growth Chamber (16 oz cup) Root Rating: 2.30
Corn rootworm larvae [2]; 1.0 mg/seed
  Growth Chamber (16 oz cup) Root Rating: 2.10

## Cc1c(F)c(F)c(COC(=O)[C@@H]2[C@H](/C=C(\Cl)C(F)(F)F)C2(C)C)c(F)c1F [Tefluthrin 50%, tefluthrin, reference compound]
Corn rootworm larvae [1]; 1.0 mg/seed
  Greenhouse (2 gal pot) Root Rating: 3.52
Corn rootworm larvae [2]; 1.0 mg/seed
  Growth Chamber (16 oz cup) Root Rating: 2.30
